In ChEMBL document CHEMBL4477252, “Optimization of microtubule affinity regulating kinase (MARK) inhibitors with improved physical properties” (Bioorg Med Chem Lett, 2016):

Legend:
Insulin receptor = Insulin receptor (Homo sapiens, UniProt P06213); experiment: Inhibition of recombinant human GST-tagged cytoplasmic INSR (1011 to 1382 residues) expressed in baculovirus expression system by Z'-LYTE assay
[1] = molecular target: RAF proto-oncogene serine/threonine-protein kinase (Homo sapiens, UniProt P04049, Y340D/Y341D); experiment: Inhibition of recombinant human GST-tagged RAF1 Y340D/Y341D mutant expressed in baculovirus expression system by Z'-LYTE assay
[2] = molecular target: NT-3 growth factor receptor (Homo sapiens, UniProt Q16288); experiment: Inhibition of recombinant human His-tagged cytoplasmic NTRK3 expressed in baculovirus expression system by Z'-LYTE assay
Sequence of NT-3 growth factor receptor (Q16288 whole entry, the tested form may be a part): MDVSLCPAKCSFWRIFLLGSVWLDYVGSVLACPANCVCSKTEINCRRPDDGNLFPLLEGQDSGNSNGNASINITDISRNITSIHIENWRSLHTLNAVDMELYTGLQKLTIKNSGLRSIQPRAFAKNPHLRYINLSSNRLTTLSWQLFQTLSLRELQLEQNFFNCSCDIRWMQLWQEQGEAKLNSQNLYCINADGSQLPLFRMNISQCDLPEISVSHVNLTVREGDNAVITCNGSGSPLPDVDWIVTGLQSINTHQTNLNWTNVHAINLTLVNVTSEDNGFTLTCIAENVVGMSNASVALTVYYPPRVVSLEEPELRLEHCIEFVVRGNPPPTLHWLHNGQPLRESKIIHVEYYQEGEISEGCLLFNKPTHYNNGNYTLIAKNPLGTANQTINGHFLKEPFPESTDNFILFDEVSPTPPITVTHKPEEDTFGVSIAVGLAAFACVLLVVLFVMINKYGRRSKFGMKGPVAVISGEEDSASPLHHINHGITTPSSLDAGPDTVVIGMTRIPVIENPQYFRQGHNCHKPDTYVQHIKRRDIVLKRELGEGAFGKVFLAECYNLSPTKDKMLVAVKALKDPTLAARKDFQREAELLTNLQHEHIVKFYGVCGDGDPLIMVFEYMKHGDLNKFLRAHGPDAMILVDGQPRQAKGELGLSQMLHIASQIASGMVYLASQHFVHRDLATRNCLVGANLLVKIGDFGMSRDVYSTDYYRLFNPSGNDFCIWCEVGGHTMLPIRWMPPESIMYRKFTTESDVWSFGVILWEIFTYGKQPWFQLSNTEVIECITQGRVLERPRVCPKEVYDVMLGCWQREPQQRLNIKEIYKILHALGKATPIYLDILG

Misshapen-like kinase 1 = Misshapen-like kinase 1 (Homo sapiens, UniProt Q8N4C8); experiment: Inhibition of recombinant human His-tagged MINK1 catalytic domain expressed in baculovirus expression system by Z'-LYTE assay
Sequence of Misshapen-like kinase 1 (Q8N4C8 whole entry, the tested form may be a part): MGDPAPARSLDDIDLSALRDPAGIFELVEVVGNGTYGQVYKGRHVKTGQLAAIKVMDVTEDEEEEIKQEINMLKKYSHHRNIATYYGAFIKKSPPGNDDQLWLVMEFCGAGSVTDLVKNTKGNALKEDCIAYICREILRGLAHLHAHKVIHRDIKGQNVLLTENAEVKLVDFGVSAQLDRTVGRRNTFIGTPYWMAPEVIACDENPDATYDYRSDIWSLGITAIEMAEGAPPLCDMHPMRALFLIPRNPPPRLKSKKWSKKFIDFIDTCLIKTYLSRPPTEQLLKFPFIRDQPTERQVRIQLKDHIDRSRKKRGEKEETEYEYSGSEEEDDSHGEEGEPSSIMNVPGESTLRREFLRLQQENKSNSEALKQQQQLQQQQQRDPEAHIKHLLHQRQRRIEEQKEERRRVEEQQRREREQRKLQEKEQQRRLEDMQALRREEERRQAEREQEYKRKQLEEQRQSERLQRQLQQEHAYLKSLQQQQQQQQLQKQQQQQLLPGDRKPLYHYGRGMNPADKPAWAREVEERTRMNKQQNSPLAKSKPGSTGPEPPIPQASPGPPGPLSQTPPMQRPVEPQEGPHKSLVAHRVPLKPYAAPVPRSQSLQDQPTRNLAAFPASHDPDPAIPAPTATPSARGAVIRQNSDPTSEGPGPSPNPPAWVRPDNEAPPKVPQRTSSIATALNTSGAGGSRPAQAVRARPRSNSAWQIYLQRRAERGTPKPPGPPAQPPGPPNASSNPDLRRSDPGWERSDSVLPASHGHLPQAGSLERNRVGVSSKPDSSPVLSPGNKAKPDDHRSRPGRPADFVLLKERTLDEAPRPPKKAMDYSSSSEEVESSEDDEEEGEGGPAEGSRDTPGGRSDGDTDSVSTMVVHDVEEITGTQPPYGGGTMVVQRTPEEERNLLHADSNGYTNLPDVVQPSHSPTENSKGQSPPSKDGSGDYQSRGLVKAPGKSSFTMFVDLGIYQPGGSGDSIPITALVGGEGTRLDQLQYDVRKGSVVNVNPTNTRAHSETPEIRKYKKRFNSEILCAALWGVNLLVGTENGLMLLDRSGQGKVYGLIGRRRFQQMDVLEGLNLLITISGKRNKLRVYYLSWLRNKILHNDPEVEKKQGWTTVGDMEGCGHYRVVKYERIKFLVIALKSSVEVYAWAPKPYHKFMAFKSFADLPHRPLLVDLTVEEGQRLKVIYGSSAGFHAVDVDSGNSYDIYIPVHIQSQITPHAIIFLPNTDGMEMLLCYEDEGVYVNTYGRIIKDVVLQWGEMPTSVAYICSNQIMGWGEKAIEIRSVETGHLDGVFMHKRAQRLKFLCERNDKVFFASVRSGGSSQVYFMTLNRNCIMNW

[3] = molecular target: T1, Protein kinase C zeta type (Homo sapiens, UniProt Q05513); experiment: Inhibition of full-length recombinant human PRKCZ expressed in baculovirus expression system by Z'-LYTE assay
T1 sequence (Q05513 whole entry): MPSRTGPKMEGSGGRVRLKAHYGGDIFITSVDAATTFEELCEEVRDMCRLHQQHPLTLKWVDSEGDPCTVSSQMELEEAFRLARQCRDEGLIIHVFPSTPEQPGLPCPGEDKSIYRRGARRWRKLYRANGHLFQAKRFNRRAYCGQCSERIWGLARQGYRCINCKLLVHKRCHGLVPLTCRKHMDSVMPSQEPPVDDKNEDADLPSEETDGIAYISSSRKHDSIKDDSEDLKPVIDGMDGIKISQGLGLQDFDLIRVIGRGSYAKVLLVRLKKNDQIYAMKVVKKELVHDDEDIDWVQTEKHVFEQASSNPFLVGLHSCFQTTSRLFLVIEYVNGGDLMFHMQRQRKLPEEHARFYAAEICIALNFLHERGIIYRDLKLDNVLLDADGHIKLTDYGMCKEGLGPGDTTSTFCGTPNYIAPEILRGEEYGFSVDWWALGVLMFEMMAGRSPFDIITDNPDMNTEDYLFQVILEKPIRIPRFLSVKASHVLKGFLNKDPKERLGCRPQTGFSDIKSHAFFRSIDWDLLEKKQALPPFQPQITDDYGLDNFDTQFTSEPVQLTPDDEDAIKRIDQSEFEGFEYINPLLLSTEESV

[4] = molecular target: Tyrosine-protein kinase JAK2 (Homo sapiens, UniProt O60674); experiment: Inhibition of recombinant human GST-tagged cytoplasmic JAK2 (809 to 1153 residues) expressed in baculovirus expression system by Z'-LYTE assay
SRSF protein kinase 1 = SRSF protein kinase 1 (Homo sapiens, UniProt Q96SB4); experiment: Inhibition of full-length recombinant human His-tagged SRPK1 expressed in baculovirus expression system by Z'-LYTE assay
Sequence of SRSF protein kinase 1 (Q96SB4 whole entry): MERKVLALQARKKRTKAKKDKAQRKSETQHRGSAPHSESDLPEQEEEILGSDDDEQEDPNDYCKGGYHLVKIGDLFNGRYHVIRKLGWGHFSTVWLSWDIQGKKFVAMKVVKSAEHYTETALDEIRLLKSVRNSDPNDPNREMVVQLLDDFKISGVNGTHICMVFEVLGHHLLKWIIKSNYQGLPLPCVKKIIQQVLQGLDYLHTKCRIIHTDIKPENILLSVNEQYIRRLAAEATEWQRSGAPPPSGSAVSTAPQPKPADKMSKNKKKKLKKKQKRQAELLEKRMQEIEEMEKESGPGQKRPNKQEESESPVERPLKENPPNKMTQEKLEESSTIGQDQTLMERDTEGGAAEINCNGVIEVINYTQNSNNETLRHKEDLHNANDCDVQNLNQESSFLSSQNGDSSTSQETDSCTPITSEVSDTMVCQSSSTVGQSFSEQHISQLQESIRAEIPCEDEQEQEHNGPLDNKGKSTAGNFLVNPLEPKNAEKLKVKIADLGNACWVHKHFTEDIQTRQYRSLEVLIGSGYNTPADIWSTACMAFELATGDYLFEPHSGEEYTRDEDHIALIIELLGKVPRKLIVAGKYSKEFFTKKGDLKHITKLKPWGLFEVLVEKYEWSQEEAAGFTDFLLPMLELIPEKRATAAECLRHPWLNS

[5] = molecular target: RAC-alpha serine/threonine-protein kinase (Homo sapiens, UniProt P31749); experiment: Inhibition of full-length recombinant human His-tagged AKT1-alpha expressed in baculovirus expression system by Z'-LYTE assay
Sequence of RAC-alpha serine/threonine-protein kinase (P31749 whole entry): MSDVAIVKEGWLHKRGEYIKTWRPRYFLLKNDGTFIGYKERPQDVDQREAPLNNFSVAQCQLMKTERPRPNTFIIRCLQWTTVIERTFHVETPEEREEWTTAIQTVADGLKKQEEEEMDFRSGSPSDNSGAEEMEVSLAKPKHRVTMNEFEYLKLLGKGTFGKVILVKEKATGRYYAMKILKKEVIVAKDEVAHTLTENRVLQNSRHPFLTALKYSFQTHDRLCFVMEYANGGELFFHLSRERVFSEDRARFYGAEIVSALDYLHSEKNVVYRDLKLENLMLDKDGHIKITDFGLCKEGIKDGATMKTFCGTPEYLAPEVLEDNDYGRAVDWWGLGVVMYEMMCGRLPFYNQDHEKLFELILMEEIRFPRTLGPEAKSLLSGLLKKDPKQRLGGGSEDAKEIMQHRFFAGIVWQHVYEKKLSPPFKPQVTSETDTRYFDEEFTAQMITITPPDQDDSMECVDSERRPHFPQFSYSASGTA

[6] = molecular target: MAP kinase-activated protein kinase 2 (Homo sapiens, UniProt P49137); experiment: Inhibition of full-length recombinant human His-tagged MAPKAPK2 expressed in Escherichia coli by Z'-LYTE assay
Sequence of MAP kinase-activated protein kinase 2 (P49137 whole entry): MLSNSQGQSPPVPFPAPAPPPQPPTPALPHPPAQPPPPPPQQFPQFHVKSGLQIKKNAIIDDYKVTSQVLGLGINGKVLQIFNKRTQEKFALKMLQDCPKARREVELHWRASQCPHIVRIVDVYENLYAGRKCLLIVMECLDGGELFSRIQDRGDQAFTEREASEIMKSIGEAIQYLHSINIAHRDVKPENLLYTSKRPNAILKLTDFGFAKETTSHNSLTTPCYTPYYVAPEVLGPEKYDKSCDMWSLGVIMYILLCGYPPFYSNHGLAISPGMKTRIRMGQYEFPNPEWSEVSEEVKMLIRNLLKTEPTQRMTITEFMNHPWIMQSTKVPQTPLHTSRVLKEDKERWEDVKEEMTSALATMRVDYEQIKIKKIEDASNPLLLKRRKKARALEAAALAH

[7] = molecular target: T2, MAP kinase-activated protein kinase 5 (Homo sapiens, UniProt Q8IW41); experiment: Inhibition of full-length recombinant human His-tagged MAPKAPK5 expressed in baculovirus expression system by Z'-LYTE assay
T2 sequence (Q8IW41 whole entry): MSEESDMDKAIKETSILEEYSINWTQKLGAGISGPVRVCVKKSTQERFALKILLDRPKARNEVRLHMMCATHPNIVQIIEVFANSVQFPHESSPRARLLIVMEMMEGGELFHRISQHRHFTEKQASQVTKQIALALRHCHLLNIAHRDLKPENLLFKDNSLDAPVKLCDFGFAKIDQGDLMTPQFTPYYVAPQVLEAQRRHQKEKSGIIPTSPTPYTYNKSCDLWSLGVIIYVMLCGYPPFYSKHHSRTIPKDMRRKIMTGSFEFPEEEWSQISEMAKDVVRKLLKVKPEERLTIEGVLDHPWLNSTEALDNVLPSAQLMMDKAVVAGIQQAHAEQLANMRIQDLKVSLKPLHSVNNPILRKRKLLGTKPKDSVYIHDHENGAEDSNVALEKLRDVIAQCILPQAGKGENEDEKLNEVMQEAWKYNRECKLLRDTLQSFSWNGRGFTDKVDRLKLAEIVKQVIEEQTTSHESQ

Ephrin type-A receptor 8 = molecular target: T3, Ephrin type-A receptor 8 (Homo sapiens, UniProt P29322); experiment: Inhibition of recombinant human GST-tagged cytoplasmic EPHA8 expressed in baculovirus expression system by Z'-LYTE assay
T3 sequence (P29322 whole entry): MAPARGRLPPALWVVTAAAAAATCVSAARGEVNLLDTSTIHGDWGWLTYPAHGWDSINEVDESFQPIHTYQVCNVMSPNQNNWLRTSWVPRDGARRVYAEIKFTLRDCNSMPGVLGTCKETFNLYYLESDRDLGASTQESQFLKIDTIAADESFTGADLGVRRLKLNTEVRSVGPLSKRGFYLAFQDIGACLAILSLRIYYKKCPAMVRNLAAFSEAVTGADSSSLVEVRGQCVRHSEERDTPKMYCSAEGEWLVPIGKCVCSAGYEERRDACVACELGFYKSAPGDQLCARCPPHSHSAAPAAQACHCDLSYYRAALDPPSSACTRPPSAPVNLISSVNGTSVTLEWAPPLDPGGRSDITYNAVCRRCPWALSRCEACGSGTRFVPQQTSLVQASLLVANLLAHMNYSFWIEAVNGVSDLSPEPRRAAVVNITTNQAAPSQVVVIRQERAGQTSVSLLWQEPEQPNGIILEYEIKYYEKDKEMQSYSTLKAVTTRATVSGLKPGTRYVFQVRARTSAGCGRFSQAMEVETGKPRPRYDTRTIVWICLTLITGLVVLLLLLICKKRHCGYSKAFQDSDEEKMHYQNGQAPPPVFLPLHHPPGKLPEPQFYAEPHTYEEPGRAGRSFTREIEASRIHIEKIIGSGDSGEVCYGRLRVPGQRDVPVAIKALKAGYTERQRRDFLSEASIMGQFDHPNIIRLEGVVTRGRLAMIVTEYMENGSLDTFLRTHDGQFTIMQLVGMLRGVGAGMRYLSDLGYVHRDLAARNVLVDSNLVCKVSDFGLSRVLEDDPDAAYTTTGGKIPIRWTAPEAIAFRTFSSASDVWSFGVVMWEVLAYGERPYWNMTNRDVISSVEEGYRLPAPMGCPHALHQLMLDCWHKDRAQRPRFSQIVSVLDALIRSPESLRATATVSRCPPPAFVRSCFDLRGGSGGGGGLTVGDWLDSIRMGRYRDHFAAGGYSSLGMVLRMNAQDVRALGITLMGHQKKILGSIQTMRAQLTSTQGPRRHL

[8] = Inhibition of full-length recombinant human GST and His-tagged AMPK alpha2/beta1/gamma1 expressed in baculovirus expression system by LanthaScreen assay

Sequence of Insulin receptor (P06213 28-758 limits assumed): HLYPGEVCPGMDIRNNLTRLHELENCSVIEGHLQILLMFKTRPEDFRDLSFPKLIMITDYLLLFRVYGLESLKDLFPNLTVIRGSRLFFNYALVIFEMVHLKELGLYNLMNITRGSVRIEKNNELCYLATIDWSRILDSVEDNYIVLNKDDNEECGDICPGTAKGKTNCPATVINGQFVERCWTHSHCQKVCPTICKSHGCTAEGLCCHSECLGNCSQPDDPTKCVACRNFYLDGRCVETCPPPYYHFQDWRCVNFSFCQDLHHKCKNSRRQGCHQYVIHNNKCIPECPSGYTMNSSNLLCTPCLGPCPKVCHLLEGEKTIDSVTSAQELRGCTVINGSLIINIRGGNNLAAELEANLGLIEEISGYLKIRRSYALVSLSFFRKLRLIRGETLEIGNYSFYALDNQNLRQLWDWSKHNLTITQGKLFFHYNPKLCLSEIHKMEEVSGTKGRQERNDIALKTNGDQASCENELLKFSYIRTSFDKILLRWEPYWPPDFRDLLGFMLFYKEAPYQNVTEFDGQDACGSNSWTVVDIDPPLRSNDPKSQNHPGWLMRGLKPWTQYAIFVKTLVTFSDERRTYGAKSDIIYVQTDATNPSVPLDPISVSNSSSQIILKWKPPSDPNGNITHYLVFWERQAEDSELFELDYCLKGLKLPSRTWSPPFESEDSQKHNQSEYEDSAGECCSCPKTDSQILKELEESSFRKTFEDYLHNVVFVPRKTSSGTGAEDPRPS
Sequence of Insulin receptor (P06213 763-1382 limits assumed): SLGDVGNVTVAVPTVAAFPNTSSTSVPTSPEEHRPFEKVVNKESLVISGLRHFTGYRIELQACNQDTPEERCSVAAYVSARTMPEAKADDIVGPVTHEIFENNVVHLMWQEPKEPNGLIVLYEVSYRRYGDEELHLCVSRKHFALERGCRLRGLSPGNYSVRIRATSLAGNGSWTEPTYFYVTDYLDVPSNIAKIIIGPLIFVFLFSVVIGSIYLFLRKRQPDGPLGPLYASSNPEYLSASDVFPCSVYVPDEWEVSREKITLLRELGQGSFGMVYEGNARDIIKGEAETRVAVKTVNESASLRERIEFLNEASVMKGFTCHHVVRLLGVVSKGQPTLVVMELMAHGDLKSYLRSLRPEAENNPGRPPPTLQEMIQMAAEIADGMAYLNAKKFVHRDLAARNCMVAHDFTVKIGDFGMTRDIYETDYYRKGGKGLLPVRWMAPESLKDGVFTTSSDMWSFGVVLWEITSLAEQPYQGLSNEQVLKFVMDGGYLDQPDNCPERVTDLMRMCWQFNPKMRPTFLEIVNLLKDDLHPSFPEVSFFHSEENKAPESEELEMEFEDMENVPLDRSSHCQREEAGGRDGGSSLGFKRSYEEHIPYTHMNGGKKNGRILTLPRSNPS

| SMILES | IC50 (Insulin receptor) | IC50 [1] | IC50 [2] | IC50 (Misshapen-like kinase 1) | IC50 [3] | IC50 [4] | IC50 (SRSF protein kinase 1) | IC50 [5] | IC50 [6] | IC50 [7] | IC50 (Ephrin type-A receptor 8) | IC50 [8] |
| --- | --- | --- | --- | --- | --- | --- | --- | --- | --- | --- | --- | --- |
| Cn1cc(-c2cnc3c(-c4csc(C(=O)N[C@@H]5CCCC[C@@H]5N)c4)cnn3c2)cn1 (racemic) | > 10000 nM | 48 nM | 13 nM | 6 nM | 40 nM | 64 nM | 140 nM | 80 nM | 390 nM | 1400 nM | 2.9 nM | – |
| Cn1cc(-c2cnc3c(-c4csc(C(=O)NCC(F)(F)F)c4)cnn3c2)cn1 | > 100000 nM | 560 nM | 120 nM | 22 nM | 1800 nM | 1200 nM | 28000 nM | > 100000 nM | > 100000 nM | 19000 nM | 29 nM | 68 nM |
| Cc1sc(C(=O)N[C@@H]2[C@H](N)CCCC2(F)F)cc1-c1cnn2cc(Cl)cnc12 | > 100000 nM | 950 nM | 1400 nM | 140 nM | 1100 nM | 4400 nM | 12000 nM | 870 nM | 7800 nM | > 100000 nM | 16000 nM | 290 nM |
| O=C(NCC(F)(F)F)c1cc(-c2cnn3cc(-c4ccc(OCCN5CCCCC5)cc4)cnc23)cs1 | 55000 nM | 630 nM | 380 nM | 13 nM | 1900 nM | 2400 nM | > 100000 nM | 24000 nM | 55000 nM | 9600 nM | 21 nM | 25 nM |
